{"source": "patent US20260000710A1", "about": "“Novel Treatments for Cardiovascular Related Disease” (priority 2022, published 2026)", "key": {"[1]": {"test_system": "AIM+ and AIM− CD4+ T cells from peptide-expanded PBMCs", "assay": "TCRβ CDR3 sequencing (immunoSEQ) of sorted AIM+ and AIM− CD4+ T cells;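 further: genomic DNA from sorted cells as template, amplification bias-controlled two-step multiplex PCR, APOB6 pool at 10 µg/ml per peptide, CD40 blocking antibody added before restimulation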", "format": "cell-based, human", "conditions": "for Log10 Odds Ratio: AIM+ vs AIM−", "quoted_text": "To examine the clonotypic identities of autoreactive CD4^+ T cells, the hypervariable TCRβ DR3 region was sequenced using a DNA-based sequencing technique^42 (Adaptive Biotechnologies), which have been used to profile clonal populations of other self-antigen specific T cells^43. PBMCs from six HLA-typed donors (demographics and HLA-II alleles in Tables 5, 6) were expanded (14-days) and restimulated (24 h) with the APOB6 pool. To isolate viable responder and non-responder CD4^+ T cells from the same pool of stimulated PBMCs (schematic in FIG. 15A, gating strategy in FIG. 151B), the inventors used the AIM assay protocol (FIGS. 2A to 2D).\nAs a second control, unexpanded PBMCs (day 0 samples), sorted into naïve, central memory (TCM) and effector memory (TEM) CD4^+ T cells, were used (gating strategy in FIG. 15C). This allowed tracing the APOB6-specific AIM^+ T cell clones in naïve and memory T cell lineages. Genomic DNA, isolated from sorted AIM^− and AIM^+ Day 14 samples and naïve, TCM and TEM Day 0 samples from six donors, was used as the starting material for TCRVβ sequencing (schematic in FIG. 15A) using an optimized two-step, amplification bias-controlled multiplex-PCR-based approach^42,44 (immunoSEQ Human TCRB Assay, Adaptive Biotechnologies).\nFor isolation of APOB epitope-specific CD4^+ T cells, PBMCs were expanded with the APOB6pool (10 μg/ml per peptide). On Day 14, cultured cells were washed and re-stimulated with APOB6 (10 μg/ml) for 24 h (AIM assay protocol). 1 μg/ml of CD40 blocking antibody was added 15 min before stimulation. At the end of the stimulation period, cells were washed with FACS buffer (PBS w/o Ca/Mg, 2% FCS). Day 14 (APOB6 expanded and restimulated) and Day 0 (ex vivo samples with no in vitro stimulation) PBMC samples from six donors were resuspended in a staining master mix containing anti-human Fc-Block (Biolegend), fixable viability dye and antibodies against T cell and non-T cell (Dump) surface markers, activation markers and memory markers (antibody details in Table 4). Viability dye was used at 1:1000 dilution, antibodies were used at a final dilution of 1:100 (activation markers) and 1:200 (other extracellular markers). […] Gates were set based on unstimulated and PHA-L stimulated negative and positive controls, respectively. Antigen-specific AIM^+ and non-specific control AIM^− CD4^+ T cells from Day 14 samples and naïve (CD45RA^+CCR7^+), central memory (CD45RA^−CCR7^+, TCM) and effector memory (CD45RA^−CCR7^−, TEM) CD4^+ T cells from Day 0 PBMCs were sorted into HEPES-containing buffer (PBS with 2% FBS and 0.025 M HEPES) using BD FACSAria flow cytometry sorters. Acquired data was analyzed with FlowJo software.\nGenomic DNA was extracted from sorted cells using QIAamp DNA Micro Kit (QIAGEN) and sent to Adaptive Biotechnologies for survey-level TCRβ sequencing (depth ˜60,000 reads) using their established immunoSEQ platform^7. Briefly, highly variable CDR3 regions on somatically rearranged human TCRβ chains were amplified with a two-step multiplex PCR approach using optimized set of primers that target the VDJ region spanning each unique CDR3B. A synthetic repertoire containing all possible V/J templates is used as a built-in control to quantify and correct PCR amplification biases. Processing of raw Illumina sequence reads, filtering, demultiplexing, clustering and mapping of CDR3 sequences and annotation of VDJ genes using IMGT database sequences were performed at Adaptive Biotechnologies and made available for download and analysis."}, "[2]": {"test_system": "purified MHC molecules (28 common HLA DP, DQ and DR alleles)", "assay": "HLA class II competition binding assay (inhibition of radiolabeled ligand binding)", "set-up": "species or system human", "conditions": "alleles bound at <1000 nM threshold", "experimental": "Peptides predicted to bind most (≥75%) of the alleles, were experimentally verified in HLA-II binding assays^31. For each peptide, the number of alleles that bound at a <1000 nM threshold level was tabulated. Top 20 promiscuous binders (bind >50% of reference alleles) were selected for further study (FIG. 9A, Table 2).\nNext, the capacity of these peptides to bind 28 common HLA alleles (27 from the reference set plus DPB1*03:01) was determined experimentally using classical competition assays based on the inhibition of binding of high affinity radiolabeled ligands to purified MHC molecules^3. Under the conditions utilized, where [radiolabeled peptide] is <[MHC], and [MHC]<[inhibitor peptide], the measured IC50 values, defined as the concentrations of inhibitor peptide that inhibits the binding of the radiolabeled ligand by 50%, are reasonable estimates of true Kd values."}, "[3]": {"conditions": "Donor 5, PBMCs expanded 14 days and restimulated 24 h with APOB6"}, "[4]": {"conditions": "Donor 6, PBMCs expanded 14 days and restimulated 24 h with APOB6"}, "[5]": {"conditions": "Donor 3, PBMCs expanded 14 days and restimulated 24 h with APOB6"}, "[6]": {"conditions": "Donor 2, PBMCs expanded 14 days and restimulated 24 h with APOB6"}, "[7]": {"conditions": "Donor 1, PBMCs expanded 14 days and restimulated 24 h with APOB6"}, "[8]": {"conditions": "Donor 4, PBMCs expanded 14 days and restimulated 24 h with APOB6"}}}
{"substance": "CATALAGGHEQYF: TCRβ CDR3 clone, TCRBV06-05+TCRBJ02-07, Donor 5", "values": [{"measurement": "Log10 Odds Ratio", "setting": "[1]; Donor 5", "result": 2.60}, {"measurement": "No. of clone-specific productive templates, AIM+ CD4+ T (Total 31354)", "setting": "[1]; [3]", "result": 753}, {"measurement": "No. of clone-specific productive templates, AIM− CD4+ T (Total 48987)", "setting": "[1]; [3]", "result": 3}]}
{"substance": "CATSDFGKEGDEKLFF: TCRβ CDR3 clone, TCRBV24-01+TCRBJ01-04, Donor 5", "values": [{"measurement": "Log10 Odds Ratio", "setting": "[1]; Donor 5", "result": 2.61}, {"measurement": "No. of clone-specific productive templates, AIM+ CD4+ T (Total 31354)", "setting": "[1]; [3]", "result": 518}, {"measurement": "No. of clone-specific productive templates, AIM− CD4+ T (Total 48987)", "setting": "[1]; [3]", "result": 2}]}
{"substance": "CATSEGGRGRGPGELFF: TCRβ CDR3 clone, TCRBV24-01+TCRBJ02-02, Donor 6", "values": [{"measurement": "Log10 Odds Ratio", "setting": "[1]; Donor 6", "result": 2.58}, {"measurement": "No. of clone-specific productive templates, AIM+ CD4+ T (Total 34927)", "setting": "[1]; [4]", "result": 292}, {"measurement": "No. of clone-specific productive templates, AIM− CD4+ T (Total 45364)", "setting": "[1]; [4]", "result": 1}]}
{"substance": "CATSEPGPLNQPQHF: TCRβ CDR3 clone, TCRBV24-01+TCRBJ01-05, Donor 3", "values": [{"measurement": "Log10 Odds Ratio", "setting": "[1]; Donor 3", "result": 1.62}, {"measurement": "No. of clone-specific productive templates, AIM+ CD4+ T (Total 16700)", "setting": "[1]; [5]", "result": 348}, {"measurement": "No. of clone-specific productive templates, AIM− CD4+ T (Total 21770)", "setting": "[1]; [5]", "result": 11}]}
{"substance": "CATSQGVGSGANVLTF: TCRβ CDR3 clone, TCRBV15-01+TCRBJ02-06, Donor 6", "values": [{"measurement": "Log10 Odds Ratio", "setting": "[1]; Donor 6", "result": 2.24}, {"measurement": "No. of clone-specific productive templates, AIM+ CD4+ T (Total 34927)", "setting": "[1]; [4]", "result": 649}, {"measurement": "No. of clone-specific productive templates, AIM− CD4+ T (Total 45364)", "setting": "[1]; [4]", "result": 5}]}
{"substance": "CAWSVGGPGANSPLHF: TCRβ CDR3 clone, TCRBV30-01+TCRBJ01-06, Donor 2", "values": [{"measurement": "Log10 Odds Ratio", "setting": "[1]; Donor 2", "result": 1.16}, {"measurement": "No. of clone-specific productive templates, AIM+ CD4+ T (Total 18591)", "setting": "[1]; [6]", "result": 369}, {"measurement": "No. of clone-specific productive templates, AIM− CD4+ T (Total 7206)", "setting": "[1]; [6]", "result": 10}]}
{"substance": "CSAMSPSGTGELFF: TCRβ CDR3 clone, TCRBV20-X+TCRBJ02-02, Donor 2", "values": [{"measurement": "Log10 Odds Ratio", "setting": "[1]; Donor 2", "result": 12.19}, {"measurement": "No. of clone-specific productive templates, AIM+ CD4+ T (Total 18591)", "setting": "[1]; [6]", "result": 549}, {"measurement": "No. of clone-specific productive templates, AIM− CD4+ T (Total 7206)", "setting": "[1]; [6]", "result": 0}]}
{"substance": "CSARADGQGYGYTF: TCRβ CDR3 clone, TCRBV20-X+TCRBJ01-02, Donor 3", "values": [{"measurement": "Log10 Odds Ratio", "setting": "[1]; Donor 3", "result": 1.73}, {"measurement": "No. of clone-specific productive templates, AIM+ CD4+ T (Total 16700)", "setting": "[1]; [5]", "result": 996}, {"measurement": "No. of clone-specific productive templates, AIM− CD4+ T (Total 21770)", "setting": "[1]; [5]", "result": 26}]}
{"substance": "CSAREGALDNSPLHF: TCRβ CDR3 clone, TCRBV20-X+TCRBJ01-06, Donor 5", "values": [{"measurement": "Log10 Odds Ratio", "setting": "[1]; Donor 5", "result": 2.33}, {"measurement": "No. of clone-specific productive templates, AIM+ CD4+ T (Total 31354)", "setting": "[1]; [3]", "result": 537}, {"measurement": "No. of clone-specific productive templates, AIM− CD4+ T (Total 48987)", "setting": "[1]; [3]", "result": 4}]}
{"substance": "CSAREPHDTSTDTQYF: TCRβ CDR3 clone, TCRBV20-X+TCRBJ02-03, Donor 2", "values": [{"measurement": "Log10 Odds Ratio", "setting": "[1]; Donor 2", "result": 11.98}, {"measurement": "No. of clone-specific productive templates, AIM+ CD4+ T (Total 18591)", "setting": "[1]; [6]", "result": 338}, {"measurement": "No. of clone-specific productive templates, AIM− CD4+ T (Total 7206)", "setting": "[1]; [6]", "result": 0}]}
{"substance": "CSARVTGGGAHTGELFF: TCRβ CDR3 clone, TCRBV20-X+TCRBJ02-02, Donor 1", "values": [{"measurement": "Log10 Odds Ratio", "setting": "[1]; Donor 1", "result": 2.69}, {"measurement": "No. of clone-specific productive templates, AIM+ CD4+ T (Total 21697)", "setting": "[1]; [7]", "result": 422}, {"measurement": "No. of clone-specific productive templates, AIM− CD4+ T (Total 49956)", "setting": "[1]; [7]", "result": 2}]}
{"substance": "CSARWYNEQFF: TCRβ CDR3 clone, TCRBV20-01+TCRBJ02-01, Donor 3", "values": [{"measurement": "Log10 Odds Ratio", "setting": "[1]; Donor 3", "result": 1.82}, {"measurement": "No. of clone-specific productive templates, AIM+ CD4+ T (Total 16700)", "setting": "[1]; [5]", "result": 349}, {"measurement": "No. of clone-specific productive templates, AIM− CD4+ T (Total 21770)", "setting": "[1]; [5]", "result": 7}]}
{"substance": "CSASRTYDNQPQHF: TCRβ CDR3 clone, TCRBV20-01+TCRBJ01-05, Donor 2", "values": [{"measurement": "Log10 Odds Ratio", "setting": "[1]; Donor 2", "result": 11.96}, {"measurement": "No. of clone-specific productive templates, AIM+ CD4+ T (Total 18591)", "setting": "[1]; [6]", "result": 326}, {"measurement": "No. of clone-specific productive templates, AIM− CD4+ T (Total 7206)", "setting": "[1]; [6]", "result": 0}]}
{"substance": "CSATGGTNEKLFF: TCRβ CDR3 clone, TCRBV20-X+TCRBJ01-04, Donor 6", "values": [{"measurement": "Log10 Odds Ratio", "setting": "[1]; Donor 6", "result": 1.59}, {"measurement": "No. of clone-specific productive templates, AIM+ CD4+ T (Total 34927)", "setting": "[1]; [4]", "result": 500}, {"measurement": "No. of clone-specific productive templates, AIM− CD4+ T (Total 45364)", "setting": "[1]; [4]", "result": 17}]}
{"substance": "CSVLQHEQYF: TCRβ CDR3 clone, TCRBV29-01+TCRBJ02-07, Donor 4", "values": [{"measurement": "Log10 Odds Ratio", "setting": "[1]; Donor 4", "result": 0.49}, {"measurement": "No. of clone-specific productive templates, AIM+ CD4+ T (Total 25796)", "setting": "[1]; [8]", "result": 466}, {"measurement": "No. of clone-specific productive templates, AIM− CD4+ T (Total 25928)", "setting": "[1]; [8]", "result": 153}]}
{"substance": "DKRLAAYLMLMRSPS [Peptide 1]", "values": [{"measurement": "No. of HLA-II alleles bound", "setting": "[2]", "result": 23}]}
{"substance": "FLHYIFMENAFELPT [Peptide 3]", "values": [{"measurement": "No. of HLA-II alleles bound", "setting": "[2]", "result": 24}]}
{"substance": "GKIDFLNNYALFLSP [Peptide 14]", "values": [{"measurement": "No. of HLA-II alleles bound", "setting": "[2]", "result": 23}]}
